Measurements as given in patent US4564614A, “Antiinflammatory methods” (priority 1985, dated 1986).

Tests used:
[1] = test system: piroxicam-induced gastric lesions; assay: animal or person; type: in vivo, rat (CD strain, Sprague-Dawley); details: for Lesions/Rat (mean +/- SE): with 120 mg/kg ethanolamine salt of piroxicam; for Significance p < 0.05: Student's two-tailed t test vs piroxicam-only control; for reduction of piroxicam-induced gastric lesions: healthy fasted rat
Experimental: Adult male "specific pathogen free" rats weighing 140-160 grams of the CD strain (Sprague-Dawley) were obtained from Charles River Breeding Laboratories (Kingston, N.Y.) The animals were acclimated for approximately one week and tested when they reached a body weight of 200-225 grams. The rats were fasted for 16 hours and randomized into groups consisting of 8 to 20 animals which were normalized with regard to their average body weight.
Gastric ulcers were induced in the animals by orally dosing them with a single 120 mg/kg dose of piroxicam (ethanolamine salt) in 2 ml. of aqueous 0.1% methylcellulose (pH=6.8). Those animals receiving a second medicinal agent separately received the second drug in an additional 2 ml. of the same medium at about the same time. Six and one-half hours later, the animals were sacrificed by cervical dislocation and autopsied. The stomachs were surgically removed, dissected along the greater curvature and rinsed with cold water. The stomachs were individually scored for both linear and punctuate lesions. The total number of lesions was used for scoring purposes. The data obtained from each group of rats was analyzed after calculation of the mean number ± the standard error of total gastric lesions. The values obtained were also compared to the controls which received only piroxicam by the two-tailed Student's T-Test for non-paired data.

[2] = 50-150 mg/day for 3 months, rheumatoid arthritis patients; cited from earlier work
[3] = test system: rheumatoid arthritis; details: 50-150 mg/day for 3 months, rheumatoid arthritis patients, most taking aspirin; cited from earlier work
[4] = test system: ulcers; details: 1.1 mg/kg, injection; cited from earlier work
[5] = test system: gastric ulcers; details: subcutaneous injection; cited from earlier work

Cc1ncc(CO)c(CO)c1O.Cl [Pyridoxine Hydrochloride, pyridoxine hydrochloride]
Lesions/Rat (mean +/- SE) ([1]; 3.3 mg/kg oral, 10 rats): 7.0 (1.1)
Lesions/Rat (mean +/- SE) ([1]; 10 mg/kg oral, 30 rats): 4.2 (1.2)
Lesions/Rat (mean +/- SE) ([1]; 33 mg/kg oral, 50 rats): 3.9 (1.1)
Significance p < 0.05 ([1]; 33 mg/kg oral): + (p < 0.05)
Lesions/Rat (mean +/- SE) ([1]; 100 mg/kg oral, 20 rats): 2.7 (1.1)
Significance p < 0.05 ([1]; 100 mg/kg oral): + (p < 0.05)
ED50 ([1]; Rattus norvegicus, 6.5 h, oral, linear regression analysis, 120 mg/kg ethanolamine salt of piroxicam, read-out: ED50 (dose required to inhibit 50% of control gastric lesion)): 33 mg/kg
increase in plasma levels of pyridoxal phosphate [2]: 2-5 fold
clinical improvements in the disease [3]: no clinical improvements

c1ccc(CCNc2nc(-c3ccccc3)cs2)cc1 [fanetizole]
reduction of piroxicam-induced gastric lesions [1]: significantly reduce

CC(=O)Nc1ccc(O)cc1 [acetaminophen]
reduction of piroxicam-induced gastric lesions [1]: significantly reduce

CN(C)CCC=C1c2ccccc2COc2ccccc21 [doxepin]
reduction of piroxicam-induced gastric lesions [1]: significantly reduce

Cc1ncc(CO)c(CO)c1O [Pyridoxine, pyridoxine]
frequency of ulcers [4]: reduce the frequency of ulcers
healing of gastric ulcers [5]: not promote the healing
pain of gastric ulcers [5]: alleviate the pain

CN1C(=O)CN=C(c2ccccc2)c2cc(Cl)ccc21 [diazepam]
reduction of piroxicam-induced gastric lesions [1]: significantly reduce

CC(C)(C)NCC(O)c1ccc(O)c(CO)n1 (centres unmarked) [pirbuterol]
reduction of piroxicam-induced gastric lesions [1]: significantly reduce
